Patent publication US9340559B2, “Proteasome inhibitor delanzomib for use in the treatment of lupus” (Cephalon, Inc., priority 2011, dated 2016)

Columns and labels:
[1] = test system: 20S proteasome; test: 20S proteasome activity in spleen (ex vivo fluorogenic assay), MRL/lpr mice; conditions: for PD EOS 20S proteasome, percent change vs vehicle: spleen
[2] = test system: IκBα; test: IκBα accumulation ELISA in kidney 3 hours post dosing, NZM mice (Example 2); type: in vivo, mouse
Description: (§1) Samples are homogenized frozen using a PT 10-35 Polytron homogenizer (VWR, no. 97036-082). […] Spleen proteasome activity is analyzed using 20S fluorogenic assay (Cayman Chemical Company, Cat #10008041, Lot #0414698-1) and modulation of proteasome activity in the kidney is analyzed using the IκBα accumulation ELISA assay (Cell Signaling, Cat #7355, Lot #17).

[3] = test system: 20S proteasome; test: 20S proteasome activity in spleen (ex vivo fluorogenic assay), NZM mice (Example 2)
[4] = test system: NZM mice; test: Antibody secreting cell Elispot (anti-Smith, anti-dsDNA ASC), spleens of NZM mice (Example 3); type: in vivo, mouse
Description: (§2) FIG. 49 depicts the frequency of anti-Smith antibody secreting cells in the spleens of NZM mice. NZM treated mice spleens were processed for splenocytes for ex vivo Elispot assays. Elispot wells were coated with 10 μg/mL of purified smith antigen or ovalbumin protein as a third party background control antigen. Fresh, whole splenocytes were added to each well at 500,000 cells per well in cell culture medium. Cells were incubated overnight at 37° C. Developed wells provided spots that were counted as frequency of ASCs per million splenocytes.
as §2, with “50” for “49”, “anti-dsDNA” for “anti-Smith”, “bovine dsDNA” for “purified smith antigen”
B-cell Elispot components are ordered from MabTech (Nacka Strand, Sweden) and nitrocellulose IP filter plates are ordered from Millipore (Billerica, Mass.). Elispot wells are coated with either purified bovine thymus dsDNA (Sigma), purified bovine Smith antigen (GenWay) or boiled filtered purified chicken chromatin from lysed chicken red blood cells (Rockland, Gilbertsville, Pa.) at 10 μg/mL. Spleens are processed using glass homogenization (frosted slides). Dispersed cell contents are washed in sterile HBSS and RBCs lysed using 1×RBC lysis buffer (BioLegend, Cat #420301). Processed splenocytes are added to each well and are not stimulated with lipopolysaccharide (LPS) to avoid skewing of true ex vivo frequencies of antibody-secreting cell types (ASCs). Anti-mouse pan-IgG is used as a positive control for total IgG producing ASCs and is used to normalize results. Frequencies for each antigen are identified in an initial test phase for each model. For chromatin and total IgG only, 30,000 splenocytes are added to each well; for Smith antigen and dsDNA, 500,000 cells are added to each well. Different numbers of splenocytes are added for different antigens due to saturation limits of spot frequencies per well. B-cell Elispots are incubated overnight at 37° C. To develop each assay, secondary antibody is added to each well, incubated, washed and alkaline phosphatase strepavidin (Jackson ImmunoResearch, West Grove, Pa.) is used as the conjugate; substrate used is BCIP-NBT (MabTech, Cincinnati, Ohio). Plates are developed until spots are visible. All Elispot analyses are performed using an Immunospot C.T.L. scanner and Biospot software (Cellular Technology Ltd., Shaker Heights, Ohio). Results are shown as values from which media and cells only wells are subtracted. Some values are negative due to high background.

[5] = test system: IκBα; test: IκBα accumulation ELISA in kidney 3 hours post dose, MRL/lpr mice; type: in vivo, mouse
Description: as §1

[6] = test system: NZM mice; test: Survival, NZM mice, sc/ip dosing (Example 3); type: in vivo, mouse; conditions: Groups 1, 2, and 4
Description: FIG. 44 depicts survival of NZM mice across treatment groups for the study duration. NZM mice were treated as outlined in the legend. […] The overall percentage of surviving mice at the 91 day endpoint is listed in parentheses within the legend. * indicates p≦0.05.

[7] = test system: NZM mice; test: Antinuclear antibody ELISA (anti-Smith, anti-dsDNA), serum of NZM mice (Example 3)
[8] = test system: NZM mice; test: Spleen CD38/CD138+ plasma cells by flow cytometry, NZM mice (Example 3)
[9] = test system: NZB/W F1 mice; conditions: lupus prone NZB/W F1 mice; cited from earlier work
[10] = in vivo; cited from earlier work
[11] = test system: MRL/lpr mice; conditions: 6 control animals, 5 on drug, p=0.03; cited from earlier work

CC(C)C[C@H](NC(=O)[C@@H](NC(=O)c1cccc(-c2ccccc2)n1)[C@@H](C)O)B(O)O [COMPOUND A, [(1R)-1-[[(2S,3R)-3-hydroxy-2-[6-phenyl-pyridine-2-carbonyl)amino]-1-oxobutyl]amino]-3-methylbutylboronic acid]
spleen 20S proteasome function decrease vs vehicle ([1]; Group 1): 40%
spleen 20S proteasome function decrease vs vehicle ([1]; Group 2): 45%
spleen 20S proteasome function decrease vs vehicle ([1]; Group 3): 41%
PD EOS 20S proteasome, percent change vs vehicle ([1]; G1: 3 mg/kg iv, 1× wk): −40%
PD EOS 20S proteasome, percent change vs vehicle ([1]; G2: 3 mg/kg iv, 2× wk): −45%
PD EOS 20S proteasome, percent change vs vehicle ([1]; G3: 10 mg/kg po, 2× wk): −41%
PD IκBα accumulation, percent change vs vehicle ([2]; G1 3 mg/kg ip, 1× wk): +33%
p, kidney IκBα accumulation 3 hours post dosing vs G9 Vehicle 1× wk ip ([2]; G2 3 mg/kg 2× wk ip): p < 0.05
PD IκBα accumulation, percent change vs vehicle ([2]; G2 3 mg/kg ip, 2× wk): +60%
kidney IκBα increase above vehicle ([2]; twice weekly administration): ~40%
spleen 20S proteasome inhibition relative to vehicle ([3]; COMPOUND A groups): ~40%
PD 20S proteasome activity, percent change vs vehicle ([3]; G1 3 mg/kg ip, 1× wk): −42%
PD 20S proteasome activity, percent change vs vehicle ([3]; G2 3 mg/kg ip, 2× wk): −41%
anti-sdDNA ASC decrease vs vehicle ([4]; Group 1 (regimen: Table 42)): 97.9%
anti-smith ASC decrease vs vehicle ([4]; Group 1 (regimen: Table 42)): 98.7%
anti-sdDNA ASC decrease vs vehicle ([4]; Group 2 (regimen: Table 42)): 96.4%
anti-smith ASC decrease vs vehicle ([4]; Group 2 (regimen: Table 42)): 96.6%
anti-sdDNA ASC decrease vs vehicle ([4]; Group 4 (regimen: Table 42)): 100.7%
anti-smith ASC decrease vs vehicle ([4]; Group 4 (regimen: Table 42)): 98.6%
anti-sdDNA ASC decrease vs vehicle ([4]; Group 5 (regimen: Table 42)): 95.9%
anti-smith ASC decrease vs vehicle ([4]; Group 5 (regimen: Table 42)): 97.6%
PD EOS IκBα accumulation, percent change vs vehicle ([5]; G1: 3 mg/kg iv, 1× wk): +537%
PD EOS IκBα accumulation, percent change vs vehicle ([5]; G2: 3 mg/kg iv, 2× wk): +227%
PD EOS IκBα accumulation, percent change vs vehicle ([5]; G3: 10 mg/kg po, 2× wk): +166%
survival relative to vehicle [6]: significantly increased survival
serum anti-dsDNA ANA decrease vs vehicle ([7]; Group 1 (regimen: Table 42)): 79.6%
serum anti-smith ANA decrease vs vehicle ([7]; Group 1 (regimen: Table 42)): 93.8%
serum anti-dsDNA ANA decrease vs vehicle ([7]; Group 2 (regimen: Table 42)): 69.2%
serum anti-smith ANA decrease vs vehicle ([7]; Group 2 (regimen: Table 42)): 85.0%
serum anti-dsDNA ANA decrease vs vehicle ([7]; Group 4 (regimen: Table 42)): 84.1%
serum anti-smith ANA decrease vs vehicle ([7]; Group 4 (regimen: Table 42)): 94.5%
serum anti-dsDNA ANA decrease vs vehicle ([7]; Group 5 (regimen: Table 42)): 81.0%
serum anti-smith ANA decrease vs vehicle ([7]; Group 5 (regimen: Table 42)): 92.4%
spleen CD138/CD38 double positive plasma B cells decrease vs vehicle ([8]; Group 1 (regimen: Table 42)): 56.6%
spleen CD138/CD38 double positive plasma B cells decrease vs vehicle ([8]; Group 2 (regimen: Table 42)): 38.1%
spleen CD138/CD38 double positive plasma B cells decrease vs vehicle ([8]; Group 4 (regimen: Table 42)): 49.8%
spleen CD138/CD38 double positive plasma B cells decrease vs vehicle ([8]; Group 5 (regimen: Table 42)): 24.3%
spleen CD138/CD38 double positive plasma B cells decrease vs vehicle ([8]; Group 6 (regimen: Table 42)): 47.8%

CC(C)C[C@H](NC(=O)[C@H](Cc1ccccc1)NC(=O)c1cnccn1)B(O)O [bortezomib, reference compound]
spleen 20S proteasome function decrease vs vehicle ([1]; Group 4): 40%
spleen 20S proteasome function decrease vs vehicle ([1]; Group 5): 41%
PD EOS 20S proteasome, percent change vs vehicle ([1]; G4: 0.5 mg/kg iv, 1× wk): −40%
PD EOS 20S proteasome, percent change vs vehicle ([1]; G5: 0.3 mg/kg iv, 2× wk): −41%
PD IκBα accumulation, percent change vs vehicle ([2]; G3 0.3 mg/kg ip, 1× wk): +61%
PD IκBα accumulation, percent change vs vehicle ([2]; G4 0.3 mg/kg ip, 2× wk): +29%
PD 20S proteasome activity, percent change vs vehicle ([3]; G3 0.3 mg/kg ip, 1× wk): −14%
PD 20S proteasome activity, percent change vs vehicle ([3]; G4 0.3 mg/kg ip, 2× wk): −27%
anti-dsDNA ASC decrease vs vehicle ([4]; Group 7, ip): 64.7%
anti-smith ASC decrease vs vehicle ([4]; Group 7, ip): 46.3%
anti-dsDNA ASC decrease vs vehicle ([4]; Group 8, sc): 88.9%
anti-smith ASC decrease vs vehicle ([4]; Group 8, sc): 82.4%
proteinuria [9]: significantly reduced proteinuria
renal pathology [9]: improved renal pathology
survival compared to vehicle [9]: markedly prolonged survival
PD EOS IκBα accumulation, percent change vs vehicle ([5]; G4: 0.5 mg/kg iv, 1× wk): +340%
PD EOS IκBα accumulation, percent change vs vehicle ([5]; G5: 0.3 mg/kg iv, 2× wk): +99%
serious side effects [10]: polyneuropathy, thrombocytopenia and gastrointestinal complications
survival [11]: significantly improved survival
serum anti-dsDNA ANA decrease vs vehicle ([7]; Group 7, ip): 25.8%
serum anti-smith ANA decrease vs vehicle ([7]; Group 7, ip): 66.7%
serum anti-dsDNA ANA decrease vs vehicle ([7]; Group 8, sc): 55.4%
serum anti-smith ANA decrease vs vehicle ([7]; Group 8, sc): 85.7%
spleen CD138/CD38 double positive plasma B cells decrease vs vehicle ([8]; Group 7, ip): 35.4%
spleen CD138/CD38 double positive plasma B cells decrease vs vehicle ([8]; Group 8, sc): 57.8%
